According to PMC5641330, “Prediction of a Therapeutic Dose for Buagafuran, a Potent Anxiolytic Agent by Physiologically Based Pharmacokinetic/Pharmacodynamic Modeling Starting from Pharmacokinetics in Rats and Human” (Frontiers in Pharmacology, 2017):
Like-named read-outs stand apart in the source and are kept apart here.

Legend:
[1] = Plasma protein binding by equilibrium dialysis, rat plasma; type: in vitro ADME; settings: 0.5–2 μg/mL
Protocol: (§1) The plasma protein binding of buagafuran (0.5–2 μg/mL) was investigated by equilibrium dialysis. Aliquots (0.5 mL) of plasma were dialyzed against 10 mL phosphate buffered saline containing a ^3H-buagafuran tracer over a membrane with an 8,000- to 12,000-dalton molecular weight cutoff. Dialysis experiment was performed for 60 h at 4 °C. After the dialysis period, 100 μL of the PBS fraction (containing unbound buagafuran) and 100 μL of the plasma fraction (containing both bound and unbound drug) was taken for liquid scintillation counting. The ratio of buagafuran concentration in buffer to that in plasma was applied to calculate the unbound fraction (Fu).

[2] = Plasma protein binding by equilibrium dialysis, human plasma; type: in vitro ADME; settings: 0.5–2 μg/mL
Protocol: as §1

[3] = Plasma PK in the rat after oral dosing (observed); type: in vivo, male Wistar rats; settings: male, Wistar; for AUC(0-t): read-out: AUC0-t Observed; for AUC(0-inf): read-out: AUC0-∞ Observed; for MRT inf: read-out: MRT(0-∞) Observed
Description: (§2) Animal Care and Welfare Committee of Institute of Materia Medica, Chinese Academy of Medical Sciences approved all animal protocols (1 Xian nong tan Street, Xicheng District, Beijing, China; Permission Number: SYXK 2014-0023, Expiration: 06 Aug, 2019). All animal programs are in compliance with the Guide for the Care and Use of Laboratory Animals issued by Beijing Association on Laboratory Animal Care (BALAC). Buagafuran formulation of PVP was suspended in deionized water and was orally administered at 4 or 8 mg/kg to male Wistar rats (weighing 180–200 g). Brain samples treated with the dose of 4 mg/kg and blood samples of both treatments were collected over 3 h. Plasma samples were obtained by centrifugation, and brain tissues were homogenized in a threefold volume (w/v) of saline. Buagafuran concentrations in plasma and brain samples were quantitated by an LC-MS/MS method ([Yang et al., 2011]).
A volume of 200 μL plasma or tissue homogenate was mixed with 100 μL IS (10 ng/mL) followed by addition of 2 mL hexane. After vortexing for 2 min, the mixture was centrifuged for 5 min at 3000 g. The extracted solution was combined and evaporated to dryness at 25°C. The residues were reconstituted in 80 μL of 80% methanol. The chromatographic separation and mass spectrometric analysis was performed on a LC/TSQ Quantum Access mass spectrometer (Thermo Finnigan, San Jose, CA, United States). Ten microliter of the sample was injected onto an Agilent Eclipse Plus C18 analytical column (3.5 μm, 50 mm × 2.1 mm) and then buagafuran and IS were eluted with a gradient of acetonitrile (phase B) and water containing 0.1% v/v formic acid (phase A). The elution program was applied as follows: 50% B for 0–0.5 min, 50% B→97% B for 0.6–5.5 min, 50% B for 5.6–7.6 min. The outlet of the column was detected in positive ionization electrospray mode with selected reaction monitoring. The monitored transitions of buagafuran and IS were m/z 245→105 and 500→142, respectively. The retention time (RT) of buagafuran was 6.13 min. The linear range of the calibration curve was 0.5–800 ng/mL.
Pharmacokinetic parameters were determined with a non-compartmental model using WinNonlin v 6.0 (Pharsight Corporation, Mountain View, CA, United States). The area under the compound concentration versus time curve from time zero to the last time point (AUC0-t) and extrapolated to infinity (AUC0-∞) and the peak plasma concentration (Cmax) were calculated.

[4] = PBPK simulation in human (GastroPlus); settings: optimized by comparing fitting with observed PK data
Description: GastroPlus^TM software (version 8.5) was used to perform all simulations, (Simulations Plus, Inc., Lancaster, CA, United States). The absorption of oral formulations from the GI tract was modeled by the advanced compartmental absorption and transit (ACAT^TM) model implemented in GastroPlus ([Agoram et al., 2001]; [Kuentz et al., 2006]; [Huang et al., 2009]; [Zhang et al., 2011]). Input parameters in the ACAT model include three groups: formulation properties, physicochemical properties and pharmacokinetic parameters. […] The immediate release (IR) suspension for rat and IR capsule for human were selected for simulation of buagafuran in GastroPlus^TM. The ACAT model consists of nine compartments that mimic the GI tract. Each GI tract has an associated ASF. ASF is the multiplier used to scale the permeability to account for different surface-to-volume ratios, pH effects, transporter differences, and other factors that affect absorption between different compartments ([Zhang et al., 2011]). Four coefficients C1–C4 are used to calculate ASF. And there are eight basic ASF models in version 8.5. […]
The pharmacokinetic parameters of unbound fraction in plasma (FUp) were experimentally measured values. […]

[5] = Brain concentrations in the rat after oral dosing (observed); type: in vivo, male Wistar rats; settings: oral 4 mg/kg
Description: as §2
A volume of 200 μL plasma or tissue homogenate was mixed with 100 μL IS (10 ng/mL) followed by addition of 2 mL hexane. After vortexing for 2 min, the mixture was centrifuged for 5 min at 3000 g. The extracted solution was combined and evaporated to dryness at 25°C. […] The outlet of the column was detected in positive ionization electrospray mode with selected reaction monitoring. The monitored transitions of buagafuran and IS were m/z 245→105 and 500→142, respectively. […]

[6] = Biopharmaceutical classification system (BCS); type: physicochemical
healthy volunteers = settings: cited from earlier work

SMILES: CCCCC1=CCC[C@@]2(C)CC[C@@H]3C[C@]12OC3(C)C [buagafuran]
- concentration dependence of plasma protein binding ([1]; rat plasma): no evident concentration-dependent binding
- fraction unbound at 60 h ([1]; rat, plasma, equilibrium dialysis, read-out: Fup rat (unbound fraction in rat plasma)): 0.031
- concentration dependence of plasma protein binding ([2]; human plasma): no evident concentration-dependent binding
- fraction unbound at 60 h ([2]; human, plasma, equilibrium dialysis, read-out: Fup human (unbound fraction in human plasma)): 0.04
- Cmax ([3]; oral 4 mg/kg): 5.31 ng/mL
- AUC(0-t) ([3]; oral 4 mg/kg): 6.69 ng·h/mL
- AUC(0-inf) ([3]; oral 4 mg/kg): 11.4 ng·h/mL
- MRT inf ([3]; oral 4 mg/kg): 212 min
- Tmax ([3]; oral 4 mg/kg, read-out: Tmax Observed): 15 min
- Cmax ([3]; oral 8 mg/kg): 10.6 ng/mL
- AUC(0-t) ([3]; oral 8 mg/kg): 14.2 ng·h/mL
- AUC(0-inf) ([3]; oral 8 mg/kg): 15.1 ng·h/mL
- MRT inf ([3]; oral 8 mg/kg): 72.6 min
- Tmax ([3]; single oral dosing 4 and 8 mg/kg, read-out: time of peak plasma concentration (converted)): 15 min
- input (refined) CLhep [4]: 11.7 mL/min/kg
- Tmax ([5]; male, Wistar, brain, read-out: time of maximum concentrations in brain): 15 to 30 min
- time at which brain concentrations were detected [5]: 5 min
- biopharmaceutical classification system (BCS) class [6]: Class II
- well tolerated multiple doses (healthy volunteers; healthy volunteers, phase I, ref Wang et al., 2011, Chen X. et al., 2013, Yang et al.): up to 120 mg twice daily
- most common side effect (healthy volunteers; phase I trials, ref Zhang, 1997, Li et al., 2001): drowsiness
